Ends that are not written are not given here.

The source of these data is article PMC12818720, “Nanoengineered Self-Assembling Peptides with Increased Proteolytic Stability Promote Wound Healing” (ACS Applied Materials & Interfaces, 2025).

The test system of one data set is HaCaT cells. The experiment in a line: Cytotoxicity / metabolic activity, AlamarBlue direct contact assay. The settings on record: assembly performed in the presence of Cu2+ (1:1), 24 h, serum-free DMEM-HG. Format: cell-based, human.
For the next data set, the target named is T1, proteinase K (Parengyodontium album, UniProt P06873).
T1 construct: purchased AppliChem
T1 sequence (P06873 106-384): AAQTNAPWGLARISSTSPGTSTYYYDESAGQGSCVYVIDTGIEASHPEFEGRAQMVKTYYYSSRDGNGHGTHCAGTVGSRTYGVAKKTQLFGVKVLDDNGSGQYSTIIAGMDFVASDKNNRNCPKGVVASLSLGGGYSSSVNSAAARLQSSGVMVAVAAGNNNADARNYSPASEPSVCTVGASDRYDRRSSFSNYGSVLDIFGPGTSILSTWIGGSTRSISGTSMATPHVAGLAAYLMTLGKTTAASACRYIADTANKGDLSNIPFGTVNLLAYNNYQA
The experiment in a line: Stability of peptide assemblies against proteinase K (HPLC). It is filed as in vitro ADME. The settings on record: in the presence of Cu2+, peptide 2 mM. Here is the method:
The chemical structure and molecular packing of the peptides play a crucial role in their stability by (un)-shielding the amide bonds from enzymatic degradation. − We investigated the stability of the supramolecular assemblies generated by Pep1–Pep3 in the presence of proteinase K. This enzyme was selected because of its activity toward a broad range of peptides/proteins that spans different temperatures (25–65 °C) and pH values (7–12).
A stock solution of proteinase K (50 μg/mL, AppliChem) was prepared in PBS. Peptide assemblies were prepared as described in Section 1 day prior the assay. These samples were incubated with proteinase K (final concentration: 10 μg/mL for proteinase K and 2 mM for Cu-free or Cu-complexed Pep1-Pep3). At each designated time point, an aliquot of 150 μL was collected, and the enzymatic activity was stopped by adding 300 μL of 1:1 H2O/ACN with 0.1% TFA. The aliquot was quantitatively assessed using HPLC under the conditions described in Section . Each sample was run in duplicate to ensure reliable results.

Description for HaCaT cells: As the designed systems target wound healing, we assessed their cytocompatibility toward human keratinocyte cell line HaCaT.
The cytotoxicity evaluation of the peptides and their supramolecular assemblies was evaluated by direct contact assay with HaCaT cells using the AlamarBlue HS Cell Viability Reagent assay (Biorad). Briefly, HaCaT cells were cultured in DMEM-HG supplemented with 10% FBS (2.5 × 10^4 cell/well) in 96-well plates for 24 h. Peptide solutions (10 mM) were prepared 24 h before the assay and sterilized (UV, 30 min). These solutions were diluted in serum-free DMEM-HG just prior to the assay to obtain concentrations ranging from 1 to 0.05 mM and added to the cultured HaCaT cells. Cultures with the peptides were mantained for 24 h and then the medium was aspirated, and AlamarBlue HS Cell Viability solution (10% (v/v) in DMEM-HG) was added to each well. The plates were incubated for 3 h at 37 °C with 5% CO2. The medium from each well was transferred to a black 96-well plate, and the fluorescence was measured using a microplate reader (Synergy, Bio-Tek) with an excitation wavelength of 550 nm and an emission wavelength of 590 nm. Cells cultured on tissue culture polystyrene (TCPS) were used as a positive control and cells treated with 20% DMSO were used as a negative one.

Regarding FFFFDGHK [Pep2], the “concentration above which cytotoxicity was observed” value with HaCaT cells is “above 250 μM”.
For the sequence FFFFDKHG [Pep3], the “concentration above which cytotoxicity was observed” value with HaCaT cells is listed as “above 250 μM”. Moreover, the “peptide not degraded after 6 h of incubation with proteinase K” value at proteinase K (proteinase K 10 μg/mL in PBS, 6 h, HPLC read-out, run in duplicate) was “more than 90%”. For the same sequence, on proteinase K (proteinase K 10 μg/mL in PBS, 24 h, HPLC read-out, run in duplicate), the “initial concentration still present after 24 h with proteinase K” value was 60%. Moreover, the “relative stability to proteinase K (in words)” value at proteinase K (proteinase K 10 μg/mL, HPLC) is given as “most stable”.
